{
  "source": "patent US5902822A",
  "about": "“7-methylthiooxomethyl and 7-methylthiodioxomethyl paclitaxels” (Bristol-Myers Squibb Company, priority 1998, dated 1999)",
  "key": {"M109 lung carcinoma": {"tested_on": "M109 lung carcinoma", "assay": "Mice M109 model, advanced distal site antitumor IV testing", "format": "in vivo, Balb/c×DBA 2 F1 (CDF1) hybrid mice", "settings": "for Maximum Effect T-C days (delay of median time to grow tumor to 1 gm): intravenous, once daily on days 4-8 post-tumor implant, sc tumor", "protocol": "Mice M109 Model (In-Vivo Activity)\nBalb/c×DBA 2 F1 (CDF1) hybrid mice were implanted subcutaneously (sc) with 0.1 mL of a 2% (w/v) brei of M109 lung carcinoma (as described by William Rose in Evaluation of Madison 109 Lung Carcinoma as a Model for Screening Antitumor Drugs, Cancer Treatment Reports, 65, No. 3-4 (1981)).\nThe test compounds and reference drug, paclitaxel, were administered intravenously to groups of mice; each group received a compound at a different dose level, and three or four different dose levels were evaluated per compound. Mice were treated with compounds intravenously, once daily, on days 4, 5, 6, 7, and 8 post-tumor implant. Mice were followed daily for survival until their death or approximately 60-90 days post-tumor implant whichever occurred first. One group of mice per experiment remained untreated and served as the primary control group; a secondary control group was typically included and received 1/10th the tumor inocula of all the other groups of mice (i.e., 0.1 ml of a 0.2% (w/v) brei of M109 lung carcinoma). Tumors were also measured once or, more often, twice weekly to estimate the tumor weight according to the published procedure (ibid).\nMedian survival times of compound-treated (T) mice were compared to the median survival time of the control (C) mice. The ratio of the two values for each compound-treated group of mice was multiplied by 100 and expressed as a percentage (i.e. % T/C) in the following Table II for representative compounds. Additionally, the difference between the median time for treated groups and that for the control group to grow tumor to 1 gm, expressed as T-C values in days, is also shown in the following table. The greater the T-C value, the greater the delay in primary tumor growth. […] When the difference in the time to grow 1 gm tumors in both primary and secondary control groups is greater than 4 days, that difference becomes the criterion for activity.\nAdvanced Distal Site Antitumor IV Testing of Paclitaxel Derivatives"}, "[1]": {"tested_on": "HCT116 human colon carcinoma cells", "assay": "XTT cytotoxicity assay in HCT116 human colon carcinoma cells", "format": "cell-based", "settings": "read-out: Cytotoxicity Assay IC50 against HCT 116 Human colon tumor cell line", "protocol": "Cytotoxicity was assessed in HCT116 human colon carcinoma cells by XTT (2,3-bis(2-methoxy-4-nitro-5-sulfophenyl)-5-[(phenylamino)carbonyl]-2H-tetrazolium hydroxide assay (1). Cells were plated at 4000 cells/well in 96 well microtiter plates and 24 hrs later drugs were added and serial diluted. The cells were incubated at 37° C. for 72 hrs at which time the tetrazolium dye, XTT, containing phenazine methosulfate was added. A dehydrogenase enzyme in live cells reduces the XTT to a form that absorbs light at 450 nm which can be quantitated spectrophotometrically. The greater the absorbance the greater the number of live cells. The results are expressed as an IC50 which is the drug concentration required to inhibit cell proliferation (i.e. absorbance at 450 nm) to 50% of that of untreated control cells.\nThe IC50 values for compounds evaluated in this assay are contained in Table I."}, "[2]": {"settings": "cited from earlier work"}, "[3]": {"settings": "HCT-116, XTT, 72 hrs incubation at 37° C."}},
  "note": "Read-outs that look alike come from different tables or passages of the source.",
  "data": [
    {"smiles": "CC(=O)O[C@H]1C(=O)[C@]2(C)[C@@H](OC[S+](C)[O-])C[C@H]3OC[C@@]3(OC(C)=O)[C@H]2[C@H](OC(=O)c2ccccc2)[C@]2(O)C[C@H](OC(=O)[C@H](O)[C@@H](NC(=O)c3ccccc3)c3ccccc3)C(C)=C1C2(C)C", "note": "(some centres unmarked)", "values": [
      {"measurement": "Maximum Effect % T/C (median survival time, treated vs control)", "setting": "M109 lung carcinoma; 15 mg/kg", "value": 141, "unit": "%"},
      {"measurement": "Maximum Effect % T/C (median survival time, treated vs control)", "setting": "M109 lung carcinoma; 25 mg/kg", "value": 129, "unit": "%"},
      {"measurement": "Maximum Effect T-C days (delay of median time to grow tumor to 1 gm)", "setting": "M109 lung carcinoma; Opt. dose 15 mg/kg/inj", "value": 9.0, "unit": "days"},
      {"measurement": "Maximum Effect T-C days (delay of median time to grow tumor to 1 gm)", "setting": "M109 lung carcinoma; Opt. dose 25 mg/kg/inj", "value": 10.0, "unit": "days"}
    ]},
    {"smiles": "CC(=O)O[C@H]1C(=O)[C@]2(C)[C@@H](OC[S+](C)[O-])C[C@H]3OC[C@@]3(OC(C)=O)[C@H]2[C@H](OC(=O)c2ccccc2)[C@]2(O)C[C@H](OC(=O)[C@H](O)[C@@H](NC(=O)c3ccccc3)c3ccccc3)C(C)=C1C2(C)C", "note": "(some centres unmarked) [2 & 3 (Example 1)]", "values": [
      {"measurement": "IC50", "setting": "[1]; HCT-116, 72 h", "value": 13, "unit": "nM"}
    ]},
    {"smiles": "CC(=O)O[C@H]1C(=O)[C@]2(C)[C@@H](OCS(C)(=O)=O)C[C@H]3OC[C@@]3(OC(C)=O)[C@H]2[C@H](OC(=O)c2ccccc2)[C@]2(O)C[C@H](OC(=O)[C@H](O)[C@@H](NC(=O)c3ccccc3)c3ccccc3)C(C)=C1C2(C)C", "note": "[4 (Example 2)]", "values": [
      {"measurement": "IC50", "setting": "[1]; [3]", "value": 2.8, "unit": "nM"}
    ]},
    {"smiles": "CC(=O)O[C@H]1C(=O)[C@@]2(C)[C@H]([C@H](OC(=O)c3ccccc3)[C@]3(O)C[C@H](OC(=O)[C@H](O)[C@@H](NC(=O)c4ccccc4)c4ccccc4)C(C)=C1C3(C)C)[C@]1(OC(C)=O)CO[C@@H]1C[C@@H]2O", "note": "[paclitaxel]", "values": [
      {"measurement": "IC50", "setting": "[1]; [3]", "value": "4.9 to 5.9", "unit": "nM"},
      {"measurement": "antitumor activity in in vivo animal models, in words", "setting": "[2]", "value": "excellent antitumor activity"}
    ]}
  ]
}
